Source: patent publication US20260294915A1, “COMBINATION THERAPY COMPRISING A MAT2A INHIBITOR AND A TOPOISOMERASE INHIBITOR, A SPLICING INHIBITOR SULFONAMIDE, OR A KIF18 INHIBITOR” (IDEAYA BIOSCIENCES, INC., priority 2023, published 2026)
Marks after values point to notes of the source that are not given here.

Experiments:
Assay in all cases: 10-day proliferation (CTG), SPLAM titration + 1000 nM Compound A, Bliss (Example 5; Tables 12-19)
Type in all cases: cell-based
[1] = system: NCI-H520; set-up: key: −100 to 100; 0 = cell number at T0, <0 = cytotoxic; settings: for GDI (growth death index), single agent Cmpd A: NCI-H520, 1000 nM Compound A
Description: (§1) A 10-day proliferation assay was performed in a panel of 5 MTAP-deficient and 2 wild type non-small cell lung and bladder cancer cell lines. Optimal cell seeding for all cell lines was determined by assessing the growth over a range of seeding densities in a 384-well format to identify conditions that permitted proliferation for 10 days. Cells were then plated at the optimal seeding density and treated with 20-point, two-fold dilution series of each of four structurally different SPLAMs in combination with a 1000 nM fixed concentration of Compound A. Single agent titrations for Compound A and each SPLAM were included for comparison. Concentrations tested for each SPLAM alone or in combination ranged from 0.04 nM to 20,000 nM. A plate of cells was harvested at the time of compound addition to quantify the number of cells at the start of the combination (T0). For cell quantification, the harvested cells were lysed with Promega CellTiter-Glo (CTG) reagent according to the manufacturer's protocol and the chemiluminescent signal was detected as described in Example 1 above. Cells were incubated with the drug combinations at 37° C. with 5% CO2 for 10 days. Cells were then lysed with CTG and the chemiluminescent signal was measured.
(§2) CTG values obtained after the 10-day treatment were background subtracted and expressed as a percent of the T0 value set at 100%. Data were plotted against compound concentration and fit with a four-parameter equation to generate single agent dose response curves. Percent inhibition was determined for each combination and single agent concentration compared to a DMSO control. In addition, the overall net growth or death of the cells was calculated and reported as a growth death index (GDI) value on a scale of −100 to 100 with the midpoint (0) being the number of cells at the beginning of the combination (T0).
(§3) Predicted inhibition was calculated using (Ea+Eb)−(Ea*Eb) where E equals the effect (inhibition) of each single agent (a and b). A difference between the observed inhibition percentage and the predicted inhibition percentage greater than 10% was considered synergistic. A Bliss score was only reported for combinations eliciting >20% growth inhibition (GDI value <80). Since Bliss is calculated based on growth inhibition, scores within cytotoxic dose ranges may not accurately reflect synergistic cytoxicity.
(§4) Synergy was measured across the Indisulam titration with 1000 nM Compound A by Bliss Independence analysis. Bliss scores >10 are indicated by “*” and are considered synergistic. […] Synergy as reported using Bliss may be underrepresented within cytotoxic dose ranges. Growth death index values are shown for the combination titration and each single agent Compound A (Cmpd A) and Indisulam on a scale of −100 to 100 with the midpoint (0) being the number of cells at the beginning of the combination (T0). Scores less than 0 are highlighted black and are representative of a cytotoxic response. Bliss and GDI values are shown for five MTAP-deficient cell lines: NCI-H520 (13A), TCCSUP (13B).
(§5) Synergy was measured across the E7820 titration with 1000 nM Compound A by Bliss Independence analysis. Bliss scores >10 are indicated by “*” and are considered synergistic. […] Synergy as reported using Bliss may be underrepresented within cytotoxic dose ranges. Growth death index values are shown for the combination titration and each single agent Compound A (Cmpd A) and Indisulam on a scale of −100 to 100 with the midpoint (0) being the number of cells at the beginning of the combination (T0). Scores less than 0 are indicated by “**” and are representative of a cytotoxic response. Bliss and GDI values are shown for five MTAP-deficient cell lines: NCI-H520 (15A), TCCSUP (15B).
(§6) Synergy was measured across the Chloroquinoxaline Sulfonamide titration with 1000 nM Compound A by Bliss Independence analysis. Bliss scores >10 are indicated by and are considered synergistic.

[2] = system: TCCSUP; set-up: key: −100 to 100; 0 = cell number at T0, <0 = cytotoxic; settings: for GDI (growth death index), single agent Cmpd A: TCCSUP, 1000 nM Compound A
Description: as §1, §2, §3, §4, §5, §6

[3] = system: NCI-H838; set-up: key: GDI scale -100 to 100; 0 = cell number at T0; <0 cytotoxic
Description: Synergy was measured across the Indisulam titration with 1000 nM Compound A by Bliss Independence analysis. Bliss scores >10 are indicated by “*” and are considered synergistic. […] Synergy as reported using Bliss may be underrepresented within cytotoxic dose ranges. Growth death index values are shown for the combination titration and each single agent Compound A (Cmpd A) and Indisulam on a scale of −100 to 100 with the midpoint (0) being the number of cells at the beginning of the combination (T0). Scores less than 0 are indicated with “**” and are representative of a cytotoxic response. Bliss and GDI values are shown for five MTAP-deficient cell lines: NCI-1H838 (12A), SW900 (12B), RT112/84 (12C), UMUC5 (121D), and UMUC11 (12E).
as §1, §2, §3
Synergy was measured across the E7820 titration with 1000 nM Compound A by Bliss Independence analysis. Bliss scores >10 are indicated by “*” and are considered synergistic. […] Synergy as reported using Bliss may be underrepresented within cytotoxic dose ranges. Growth death index values are shown for the combination titration and each single agent Compound A (Cmpd A) and Indisulam on a scale of −100 to 100 with the midpoint (0) being the number of cells at the beginning of the combination (T0). Scores less than 0 are indicated by “**” and are representative of a cytotoxic response. Bliss and GDI values are shown for five MTAP-deficient cell lines: NCI-1H838 (14A), SW900 (14B), RT112/84 (14C), UMUC5 (141)), and UMUC11 (14E).
Synergy was measured across the Chloroquinoxaline Sulfonamide titration with 1000 nM Compound A by Bliss Independence analysis.

[4] = SPLAM 0.04 nM, alone or + 1 uM Cmpd A
[5] = SPLAM 0.1 nM, alone or + 1 uM Cmpd A
[6] = SPLAM 0.2 nM, alone or + 1 uM Cmpd A
[7] = SPLAM 0.3 nM, alone or + 1 uM Cmpd A
[8] = SPLAM 0.6 nM, alone or + 1 uM Cmpd A
[9] = SPLAM 1.2 nM, alone or + 1 uM Cmpd A
[10] = SPLAM 2.4 nM, alone or + 1 uM Cmpd A
[11] = SPLAM 4.9 nM, alone or + 1 uM Cmpd A
[12] = SPLAM 9.8 nM, alone or + 1 uM Cmpd A
[13] = SPLAM 19.5 nM, alone or + 1 uM Cmpd A
[14] = SPLAM 39.1 nM, alone or + 1 uM Cmpd A
[15] = SPLAM 78.1 nM, alone or + 1 uM Cmpd A
[16] = SPLAM 156.3 nM, alone or + 1 uM Cmpd A
[17] = SPLAM 312.5 nM, alone or + 1 uM Cmpd A
[18] = SPLAM 625 nM, alone or + 1 uM Cmpd A
[19] = SPLAM 1250 nM, alone or + 1 uM Cmpd A
[20] = SPLAM 2500 nM, alone or + 1 uM Cmpd A
[21] = SPLAM 5000 nM, alone or + 1 uM Cmpd A
[22] = SPLAM 10000 nM, alone or + 1 uM Cmpd A
[23] = SPLAM 20000 nM, alone or + 1 uM Cmpd A

Work on `NS(=O)(=O)c1ccc(S(=O)(=O)Nc2cccc3c(Cl)c[nH]c23)cc1` [Indisulam, N-(3-chloro-1H-indol-7-yl)benzene-1,4-disulfonamide] yielded a GDI [1, 4] of 95, a GDI [1, 5] of 100 and a GDI [1, 6] of 100. For the same molecule, the GDI [1, 7] was 100, the GDI [1, 8] was 100 and the GDI [1, 9] was 100. The GDI [1, 10] was 100, the GDI [1, 11] was 100 and the GDI [1, 12] was 100. The GDI [1, 13] was 100, the GDI [1, 14] was 100 and the GDI [1, 15] was 100. It also gave a GDI [1, 16] of 100, a GDI [1, 17] of 97 and a GDI [1, 18] of 45. It also gave a GDI [1, 19] of 25, a GDI [1, 20] of 12 and a GDI [1, 21] of 6. For the same molecule, the GDI [1, 22] was 6, the GDI [1, 23] was 2 and the GDI [2, 4] was 100. It also gave a GDI [2, 5] of 100, a GDI [2, 6] of 100 and a GDI [2, 7] of 100. For the same molecule, the GDI [2, 8] was 100, the GDI [2, 9] was 100 and the GDI [2, 10] was 100. It also gave a GDI [2, 11] of 100, a GDI [2, 12] of 100 and a GDI [2, 13] of 100. The GDI [2, 14] was 100, the GDI [2, 15] was 100 and the GDI [2, 16] was 100. The GDI [2, 17] was 100, the GDI [2, 18] was 100 and the GDI [2, 19] was 100. For the same molecule, the GDI [2, 20] was 100, the GDI [2, 21] was 100 and the GDI [2, 22] was 86. For the same molecule, the GDI [2, 23] was 70, the GDI [3, 4] was 100 and the GDI [3, 5] was 100. It also gave a GDI [3, 6] of 100, a GDI [3, 7] of 100 and a GDI [3, 8] of 100. The GDI [3, 9] was 100, the GDI [3, 10] was 100 and the GDI [3, 11] was 100. For the same molecule, the GDI [3, 12] was 100, the GDI [3, 13] was 100 and the GDI [3, 14] was 100. It also gave a GDI [3, 15] of 100, a GDI [3, 16] of 100 and a GDI [3, 17] of 54. For the same molecule, the GDI [3, 18] was 11, the GDI [3, 19] was 2 and the GDI [3, 20] was 1. For the same molecule, the GDI [3, 21] was −13**, the GDI [3, 22] was −50** and the GDI [3, 23] was −52**.
`Nc1nc(=O)n(-c2ccccc2Cl)c2nc(C(F)(F)F)ccc12` [Compound A] was tested, and the “GDI (growth death index), single agent Cmpd A” value (“GDI (growth death index)” below) ([1]; Table 17A) was 100, the “GDI (growth death index)” value ([1]; Table 19A) was 100 and the GDI ([1]; single agent Cmpd A, 1000 nM) was 100. For the same molecule, the “GDI (growth death index)” value ([2]; Table 17B) was 84, the “GDI (growth death index)” value ([2]; Table 19B) was 84 and the GDI ([2]; single agent Cmpd A, 1000 nM) was 84. The “GDI (growth death index)” value ([3]; NCI-H838, 1000 nM Compound A, Table 18A) was 49 and the GDI ([3]; single agent Cmpd A, 1000 nM) was 49.
